Data published in patent publication US20060160070A1, “Association-based epitome design” (Microsoft Corporation, priority 2004, published 2006).

Legend:
HLA A*2402 [1] = target: T1, HLA A*2402 (Homo sapiens, UniProt P04439, D101N/D140Y/D185E/E176V/E190D/F33S/G103R/G107R/I119L/I121M/I306V/K335N/L105A/L180Q/L300P/N151K/N90K/Q86E/Q94H/R106L/R138H/R89G/T104I/T345S/V100E/W191G/Y123F); experiment: ITOPIA off-rate assay; format: binding; conditions: 37° C., one-phase exponential decay
Experimental: (§1) Peptide binding, off-rate and affinity were measured according to the protocols described in the ITOPIA Epitope Discovery System Customer Guide. To conduct the experiments, ninety-six (96) micro-titer plates coated with MHC molecules representing the HLA alleles listed in Table 9 were used to identify candidate peptides. Determinations were performed in duplicate using an ELISA plate reader. The peptide binding assay used measures the ability of individual peptides to bind to the HLA molecules under standardized optimal binding conditions. The assay was performed for all the test peptides across the selected HLA alleles. The test peptides identified as “binders” were characterized further in terms of affinity and dissociation experiments. The off-rate assay used evaluates the dissociation of previously bound peptide at defined time points (expressed as the t1/2 value). The affinity assay used measures the relative binding affinities for the MHC molecules determined by incubating candidate peptides identified in the initial peptide binding assay at increasing concentrations (expressed as quantity of peptide needed to achieve 50% binding or ED50 value).
(§2) The peptides initially identified as binders were evaluated for stability based on their ability to remain bound to MHC molecules at 37° C. at time points 0, 0.5, 1, 1.5, 2, 4, 6 and 8 hours. […] The values obtained for each time point (in duplicate) are expressed (Table 11) as a percentage of the positive control. To calculate the t1/2 and goodness-of-fit, as measured by r^2, for each peptide, a one-phase exponential decay curve, with a plateau given equal to 0, was generated using […] PRISM software.

HLA B*0801 [2] = target: T2, HLA B*0801 (Homo sapiens, UniProt P01889, A93T/A95T/D138N/E176V/E187T/K202T/Q94N/R180D/S35A/V36M/Y33D/Y91F); experiment: Multi-parametric analysis iScore; format: binding; parameters: scale not given here; conditions: index integrating t1/2 and ED50
T2 construct: purchased
Experimental: (§3) Multi-parametric analysis was performed to integrate the half-life (t½) and ED50 parameters in an index (iScore). The iScore (Table 13) reflects the capability of a peptide to reconstitute with MHC molecules in a stable complex, defining its overall level of binding.

HLA A*0301 [3] = target: T3, HLA A*0301 (Homo sapiens, UniProt P04439); experiment: Multi-parametric analysis iScore; format: binding; parameters: scale not given here; conditions: index integrating t1/2 and ED50
T3 construct: purchased
Experimental: as §3

HLA A*2402 [4] = target: T1, HLA A*2402; experiment: Multi-parametric analysis iScore; format: binding; parameters: scale not given here; conditions: index integrating t1/2 and ED50
Experimental: as §3

HLA B*0702 [5] = target: T4, HLA B*0702 (Homo sapiens, UniProt P01889); experiment: Multi-parametric analysis iScore; format: binding; parameters: scale not given here; conditions: index integrating t1/2 and ED50
T4 construct: purchased
Experimental: as §3

HLA B*1501 [6] = target: T5, HLA B*1501 (Homo sapiens, UniProt P01889, A329T/A93T/A95T/C349S/D201E/D98Y/E187L/E204Q/E69M/E70A/K202T/N87E/Q94N/R155S/R180W/S121R/S35A/S48A/V306I/V36M/Y140S/Y91S); experiment: Multi-parametric analysis iScore; format: binding; parameters: scale not given here; conditions: index integrating t1/2 and ED50
T5 construct: purchased
Experimental: as §3

HLA A*1101 [7] = target: T6, HLA A*1101 (Homo sapiens, UniProt P04439, A114D/D185E/E176A/F33Y/L180Q/S129P/T187R); experiment: Multi-parametric analysis iScore; format: binding; parameters: scale not given here; conditions: index integrating t1/2 and ED50
T6 construct: purchased
Experimental: as §3

HLA A*0101 [8] = target: T7, HLA A*0101 (Homo sapiens, UniProt P04439, A114D/A174V/A182V/D101N/D185E/E176A/E190D/L180R/Q94H/R68K/S129P/T187R/V100A/V91M/W191G); experiment: Multi-parametric analysis iScore; format: binding; parameters: scale not given here; conditions: index integrating t1/2 and ED50
T7 construct: purchased
Experimental: as §3

HLA A*0201 [9] = target: T8, HLA A*0201 (Homo sapiens, UniProt P04439, D140Y/D185E/D98H/E176V/E277Q/G131W/G231S/I119V/I121R/I166T/I218V/L300P/L318F/N151K/N90K/P208A/P217A/Q86G/Q94H/R138H/R169H/T345S); experiment: Multi-parametric analysis iScore; format: binding; parameters: scale not given here; conditions: index integrating t1/2 and ED50
Experimental: as §3

HLA B*0801 [10] = target: T2, HLA B*0801; experiment: ITOPIA peptide binding assay; conditions: 1.11×10^−4M of peptide
Experimental: as §1
(§4) The binding of the test peptides (Table 8) to the HLA molecules (Table 9) was performed at a concentration of 1.11×10^−4M of peptide under optimal, standardized test conditions. A control peptide was run in parallel on the same plate and at the same concentration as the test peptides. […] The level of binding is expressed as a percent of positive control peptide binding for each allele.

HLA A*0301 [11] = target: T3, HLA A*0301; experiment: ITOPIA peptide binding assay; conditions: 1.11×10^−4M of peptide
Experimental: as §1, §4

HLA A*2402 [12] = target: T1, HLA A*2402; experiment: ITOPIA peptide binding assay; conditions: 1.11×10^−4M of peptide
Experimental: as §1, §4

HLA B*0702 [13] = target: T4, HLA B*0702; experiment: ITOPIA peptide binding assay; conditions: 1.11×10^−4M of peptide
Experimental: as §1, §4

HLA B*1501 [14] = target: T5, HLA B*1501; experiment: ITOPIA peptide binding assay; conditions: 1.11×10^−4M of peptide
Experimental: as §1, §4

HLA A*1101 [15] = target: T6, HLA A*1101; experiment: ITOPIA peptide binding assay; conditions: 1.11×10^−4M of peptide
Experimental: as §1, §4

HLA A*0101 [16] = target: T7, HLA A*0101; experiment: ITOPIA peptide binding assay; conditions: 1.11×10^−4M of peptide
Experimental: as §1, §4

HLA A*0201 [17] = target: T8, HLA A*0201; experiment: ITOPIA peptide binding assay; conditions: 1.11×10^−4M of peptide
Experimental: as §1, §4

HLA A*0201 [18] = target: T8, HLA A*0201; experiment: ITOPIA off-rate assay; format: binding; conditions: 37° C., one-phase exponential decay
Experimental: as §1, §2

HLA B*1501 [19] = target: T5, HLA B*1501; experiment: ITOPIA off-rate assay; format: binding; conditions: 37° C., one-phase exponential decay
Experimental: as §1, §2

Sequence: YNEWTLELL [compound 22]
- A*2402 t1/2 (HLA A*2402 [1]): 1.5 h
- iScore (HLA B*0801 [2]): 0
- iScore (HLA A*0301 [3]): 0
- iScore (HLA A*2402 [4]): 0.071
- iScore (HLA B*0702 [5]): 0
- iScore (HLA B*1501 [6]): 0
- iScore (HLA A*1101 [7]): 0
- iScore (HLA A*0101 [8]): 0
- iScore (HLA A*0201 [9]): 0
- level of binding, percent of positive control peptide binding (HLA B*0801 [10]): 3% of positive control
- level of binding, percent of positive control peptide binding (HLA A*0301 [11]): 0% of positive control
- level of binding, percent of positive control peptide binding (HLA A*2402 [12]): 35% of positive control
- level of binding, percent of positive control peptide binding (HLA B*0702 [13]): 2% of positive control
- level of binding, percent of positive control peptide binding (HLA B*1501 [14]): 0% of positive control
- level of binding, percent of positive control peptide binding (HLA A*1101 [15]): 1% of positive control
- level of binding, percent of positive control peptide binding (HLA A*0101 [16]): 0% of positive control
- level of binding, percent of positive control peptide binding (HLA A*0201 [17]): 7% of positive control

Sequence: ALFYKLDVI [compound 158]
- A*2402 t1/2 (HLA A*2402 [1]): 1.1 h
- A*0201 t1/2 (HLA A*0201 [18]): 5.5 h
- iScore (HLA B*0801 [2]): 0
- iScore (HLA A*0301 [3]): 0
- iScore (HLA A*2402 [4]): 0.339
- iScore (HLA B*0702 [5]): 0
- iScore (HLA B*1501 [6]): 0
- iScore (HLA A*1101 [7]): 0
- iScore (HLA A*0101 [8]): 0
- iScore (HLA A*0201 [9]): 0.460
- level of binding, percent of positive control peptide binding (HLA B*0801 [10]): 5% of positive control
- level of binding, percent of positive control peptide binding (HLA A*0301 [11]): 14% of positive control
- level of binding, percent of positive control peptide binding (HLA A*2402 [12]): 99% of positive control
- level of binding, percent of positive control peptide binding (HLA B*0702 [13]): 3% of positive control
- level of binding, percent of positive control peptide binding (HLA B*1501 [14]): 3% of positive control
- level of binding, percent of positive control peptide binding (HLA A*1101 [15]): 1% of positive control
- level of binding, percent of positive control peptide binding (HLA A*0101 [16]): 1% of positive control
- level of binding, percent of positive control peptide binding (HLA A*0201 [17]): 62% of positive control

Sequence: CSSNITGLI [compound 154]
- A*2402 t1/2 (HLA A*2402 [1]): 1.5 h
- B*1501 t1/2 (HLA B*1501 [19]): 3.8 h
- A*0201 t1/2 (HLA A*0201 [18]): 0.4 h
- iScore (HLA B*0801 [2]): 0
- iScore (HLA A*0301 [3]): 0
- iScore (HLA A*2402 [4]): 0.038
- iScore (HLA B*0702 [5]): 0
- iScore (HLA B*1501 [6]): 0.112
- iScore (HLA A*1101 [7]): 0
- iScore (HLA A*0101 [8]): 0
- iScore (HLA A*0201 [9]): 0.114
- level of binding, percent of positive control peptide binding (HLA B*0801 [10]): 6% of positive control
- level of binding, percent of positive control peptide binding (HLA A*0301 [11]): 0% of positive control
- level of binding, percent of positive control peptide binding (HLA A*2402 [12]): 29% of positive control
- level of binding, percent of positive control peptide binding (HLA B*0702 [13]): 5% of positive control
- level of binding, percent of positive control peptide binding (HLA B*1501 [14]): 40% of positive control
- level of binding, percent of positive control peptide binding (HLA A*1101 [15]): 1% of positive control
- level of binding, percent of positive control peptide binding (HLA A*0101 [16]): 5% of positive control
- level of binding, percent of positive control peptide binding (HLA A*0201 [17]): 44% of positive control
